Columns and labels:
[1] = system: HeLa (cervical adenocarcinoma) cells; assay: IC50 (viability) in HeLa cells; assay type: cell-based, human
Protocol: (§1) 19 variants with different structural modifications have been made. […] In particular, it is shown that C75 causes death in multiple cancer cells with IC50 values in the 100 nM range, including breast cancers (MCF7, BT549), lung cancer (A549), colorectal cancer (HCT116) in addition to HeLa cells (cervical cancer).

[2] = system: A549 (lung carcinoma) cells; assay: IC50 (viability) in A549 cells; assay type: cell-based; settings: Homo sapiens
Protocol: as §1

HFF1 cells = assay: Percentage of mitotic HFF1 cells with paclitaxel +/- C75; assay type: cell-based
Source text: FIG. 3A) is a line graph showing the percentage of mitotic HeLa or HFF1 cells treated with a range of paclitaxel (Taxol™; tubulin-targeting drug) concentrations+/−C75 as indicated. The bars indicate standard deviation. FIG. 3B) is a series of bar graphs showing the proportion of HCT116 cells that have monopolar spindles, bipolar spindles with aligned chromosomes, bipolar spindles with misaligned chromosomes and multipolar/fragmented spindles after treatments as shown. Treatments include DMSO (control), varying concentrations of paclitaxel and/or varying concentrations of C75 after 7 hours. While treatment of HCT116 cells with 2.5 nM paclitaxel caused a threshold of mitotic spindle phenotypes, adding increasing concentrations of C75 in combination with 2.5 nM paclitaxel caused the phenotypes to progressively worsen. FIG. 3C) is bar graph showing the average distance between centrosome fragments in HCT116 cells after treatments as shown. While centrosome fragments moved closer together with increased concentrations of paclitaxel, they moved further apart with increased concentrations of C75. […] FIG. 3E) is a line graph showing the percentage of mitotic HeLa or HFF1 cells treated with a range of nocodazole concentrations+/−C75 as indicated. The bars indicate standard deviation. […]

HeLa spheroids = assay: HeLa multicellular tumour spheroids; assay type: cell-based, human
Protocol: FIG. 5A) is a series of images of HeLa multicellular tumor spheroids (spheroids) treated with control (500 nM C87), empty nanoparticles, 500 nM C75 and 250 nM C75-loaded nanoparticles over 3 days. […] The scale bar for all images is 100 μm. FIG. 5B) is a series images of HeLa spheroids after three days of treatment with control (500 nM C87) or 500 nM C75. The spheroids were stained for fluorescein diacetate (to detect live cells) and propidium iodide (to detect dead cells). […] The scale bar for all images is 100 μm. FIG. 5C) is a series of images of HCT116 spheroids treated with control (1 μM C87), 500 nM C75, 1 μM C75 and 500 nM C75-loaded nanoparticles over 5 days. […] The borders of the spheroids treated with 1 μM C75 or with 500 nM C75-loaded nanoparticles became highly irregular, indicative of loss of spheroid integrity. FIG. 5D) is a series images of HCT116 spheroids after six days of treatment with control (1 μM C87) or 1 μM C75. The spheroids were stained for fluorescein diacetate (live cells) and propidium iodide (dead cells). […] FIG. 5E) is a line graph showing the growth in surface area (%) of HCT116 spheroids treated with control (1 μM C87), 500 nM C75 and 1 μM C75 after six days. FIG. 5F) is a series of images of A549 spheroids treated with control (750 nM C87), 500 nM C75, 1 μM C75 and 500 nM C75-loaded nanoparticles over 5 days. […] The scale bar for all images is 100 μm. […]

## COc1ccc(S(=O)(=O)N2Cc3ccccc3-c3sc(Br)cc32)cc1 [Compound C75]
[1]; Homo sapiens, HeLa cells, cells printed in nM
  IC50: 27 nM
[1]; comparison of Table 3 IC50 values, cancer vs. non-cancer cells
  efficacy (effect on viability) in cancer cells vs. non-cancer cells: higher efficacy
[2]
  IC50: 109 nM
HFF1 cells
  effect of C75 on non-cancerous cells treated with paclitaxel: protective effect
HeLa spheroids; 500 nM C75 or 250 nM C75-loaded nanoparticles, over 3 days
  effect on HeLa spheroids: disrupt HeLa spheroids
HeLa spheroids; HeLa spheroids, 500 nM, three days
  live/dead staining of spheroids (fluorescein diacetate / propidium iodide): majority of HeLa cells were dead

Reference: patent publication US11034702B2, “Thienoisoquinolines and their derivatives for the treatment of cancer” (VALORBEC, SOCIÉTÉ EN COMMANDITE, priority 2016, dated 2021)
